Laboratory results from PMC4942819 (Scientific Reports, 2016).
In brackets after ≈: the same amount, converted by molar mass. Like-named read-outs stand apart in the source and are kept apart here.

How the values were obtained:
[1] = in vivo acute toxicity study; parameters: species or system BALB/c mice; AST: unit not given here; settings: for ALB / ALP / AST / BUN / CHOL / TP: 1 g/kg i.p., 2 weeks, Mean ± SE, n = 5
Experimental: All animal experiments have been approved by the Institutional Animal Care and Treatment Committee of Sichuan University in China and were carried out in accordance with the approved guidelines. 20 BALB/c mice in both sexes were administered with SKLB-TB1001 CMC suspension at 1 g/kg by intraperitoneal injection, control mice remained untreated. Animals were continuously observed for 24 hours after administration. In each group, numbers of deaths and general behavior were recorded within 2 weeks, LD50 values were calculated. 2 weeks later, animals were sacrificed, blood samples were collected from the eye vein for biochemical and hematological tests. The organs and tissues of animals were removed and fixed in 10% formalin and embedded in paraffin for histological evaluation.

Mycobacterium avium = assay: microdilution plate assay, MIC; format: cell-based
MDR-TB clinical isolates = assay: microbe, parasite or virus in culture; format: cell-based; settings: Mycobacterium tuberculosis
XDR-TB clinical isolates = assay: microbe, parasite or virus in culture; format: cell-based, Mycobacterium tuberculosis; settings: Mycobacterium tuberculosis
M. tuberculosis H37Rv = assay: MABA checkerboard synergy assay; format: cell-based, Mycobacterium tuberculosis; settings: for MIC: Mycobacterium tuberculosis, H37RV, checkerboard, drug alone, read-out: MIC against H37Rv, MIC alone
[2] = system: Mycobacterium tuberculosis Erdman; assay: microplate Alamar blue assay (MABA), MIC; format: cell-based
A549 cells = assay: cytotoxicity, MTT assay; format: cell-based; settings: Homo sapiens
Experimental: (§1) The compounds were examined for toxicity (IC50) using MTT assay. Briefly, cells (3 ~ 5 × 10^3 cells/well) were seeded in a 96-well plate. After 24 h incubation, the cells were treated with various concentrations of drugs for 24, 48, 72 h, respectively. Columns one and two in the assay plates contained-media +0.1% DMSO for a negative control ,Then, 20 μl of a 5 mg/mL MTT solution was added to each well, and the plates were incubated for an additional 2~4 h at 37 °C. The medium was subsequently discarded, and DMSO 150 μL was added to dissolve the formazan. Oscillate 15 min, the OD 570 was measured using a Spectra MAX M5 microplate spectrophotometer (Molecular Devices, CA, USA), and the IC50 values were calculated.

J774A.1 cells = assay: cytotoxicity, MTT assay; format: cell-based; settings: Mus musculus, J774.A1
Experimental: as §1

plasma protein binding = format: in vitro ADME; settings: mouse, (M), read-out: Plasma protein binding (converted)
Experimental: The In vitro ADME/T assays were conducted at WuXi AppTec Co. Ltd.(Shanghai). ClogP was calculated with ChemDraw Ultra 14.0. In the study of bi-directional permeability across MDR1-MDCKII cell monolayer, permeability was correlated with the apparent permeability coefficient Papp (cm/s), which was interpreted as follows: Low permeability( Papp ≤ 1.0×10^-6 cm/s), Moderate permeability(1.0×10^-6 < Papp < 5.5×10^-6 cm/s) or High permeability( Papp ≥ 5.5×10^-6 cm/s). ^aaqueous solubility at room temperature.

## O=[N+]([O-])c1cc(C(F)(F)F)cc2c(=S)nc(N3CCC4(CC3)OCCO4)sc12 [SKLB-TB1001, 8-nitro-2-(1,4-dioxa-8-azaspiro[4.5]decan-8-yl)-6-(trifluoromethyl)-4H-benzo[e][1,3]thiazine-4-thione]
[1]; BALB/c mice, 1 g/kg, 14 days
  death in acute single dose toxicity studies: no death
  pathological changes in heart, liver, lung, kidneys and spleen: No observable pathological changes
[1]; BALB/c mice, single dose, intraperitoneal
  maximum non-toxic dose: greater than 1 g/kg
[1]; Female Treatment
  ALB: 32.18 ± 0.65 g/L
  ALP: 162.00 ± 4.70 U/L
  AST: 154.60 ± 5.57
  BUN: 7.06 ± 0.35 mmol/L
  CHOL: 3.31 ± 0.08 mmol/L
  TP: 68.56 ± 1.42 g/L
[1]; Male Treatment
  ALB: 32.84 ± 0.44 g/L
  ALP: 159.20 ± 6.98 U/L
  AST: 153.40 ± 4.30
  BUN: 7.10 ± 0.60 mmol/L
  CHOL: 3.31 ± 0.07 mmol/L
  TP: 68.38 ± 1.58 g/L
Mycobacterium avium
  MIC: 32 µg/mL (≈ 73.8 µM)
MDR-TB clinical isolates; read-out: MIC, MDR-TB strain M3
  MIC: < 0.0156 µg/mL
MDR-TB clinical isolates; read-out: MIC, MDR-TB strain M4
  MIC: < 0.0156 µg/mL
MDR-TB clinical isolates; read-out: MIC, MDR-TB strain M8
  MIC: < 0.0156 µg/mL
MDR-TB clinical isolates; read-out: MIC, MDR-TB strain M18
  MIC: < 0.0156 µg/mL
XDR-TB clinical isolates; read-out: MIC, XDR-TB strain X15
  MIC: < 0.0156 µg/mL
XDR-TB clinical isolates; read-out: MIC, XDR-TB strain X17
  MIC: < 0.0156 µg/mL
M. tuberculosis H37Rv; 336 h
  MIC: 0.02 µg/mL
M. tuberculosis H37Rv
  MIC: 0.02 µg/mL
M. tuberculosis H37Rv; combination with linezolid
  FICI: 1.34
M. tuberculosis H37Rv; in combination with INH
  MIC against H37Rv, MIC in combo.: 0.007 µg/mL
M. tuberculosis H37Rv; in combination with LZD
  MIC against H37Rv, MIC in combo.: 0.013 µg/mL
M. tuberculosis H37Rv; in combination with MOX
  MIC against H37Rv, MIC in combo.: 0.008 µg/mL
M. tuberculosis H37Rv; in combination with RMP
  FICI: 0.22
  MIC against H37Rv, MIC in combo.: 0.001 µg/mL
M. tuberculosis H37Rv; in the presence of RMP
  decrease of MIC: 5 fold
M. tuberculosis H37Rv; in the presence of isoniazid
  FICI: 0.68
M. tuberculosis H37Rv; in the presence of moxifloxacin
  FICI: 0.97
[2]
  MIC: < 0.05 µg/mL
A549 cells
  IC50: > 100 µg/mL
J774A.1 cells
  IC50: > 32 µg/mL
Plasma protein binding
  fraction unbound: 0.038
